Data published in patent US11382919B2 (priority 2017, dated 2022).

Key:
[1] = test system: phosphatidylserines (PtdS), Akt, PLSCR1 at the outer leaflet of the plasma membrane; experiment: Confocal imaging of HSV-induced externalization of PtdS, Akt and PLSCR1 in non-permeabilized cells; assay type: cell-based, human
HSV-1(VP26GFP) = assay type: cell-based; conditions: Vk2E6/E7 cells, R5421 pretreatment
HSV-2(G) = experiment: Viral plaque assay with HSV-2(G); assay type: cell-based; conditions: 5 μM R5421 pretreatment, drug added back to overlay, plaques 48 h post-infection
HSV-2(333ZAG) = assay type: cell-based; conditions: Vk2E6/E7 cells, R5421 pretreatment
HSV-1 = conditions: sporadic fatal encephalitis; optimal intravenous acyclovir therapy; cited from earlier work
Akt = experiment: Ionomycin-induced Akt phosphorylation (biotinylation of cell surface proteins, immunoblot); assay type: cell-based, human; conditions: CaSki cells; 1 μM ionomycin; 5 or 15 minutes; immunoblotting
Experimental: (§1) FIG. 9A-9E. Ionomycin activates phospholipid scramblase leading to externalization of phosphatidylserines and Akt. (A). CaSki cells were treated with ionomycin (1 μM), HSV-2(G) (MOI 5 pfu/cell) or DMSO (0.1%) for 15 minutes and then fixed and stained with antibodies to PLSCR1 (polyclonal rabbit and Alexa 555, red), PtdS (monoclonal antibody and Alexa555, red), or Akt (polyclonal rabbit and secondary Alexa488, green) as indicated. Nuclei were stained blue with DAPI. Images are representative of results obtained from 2-3 independent experiments; bar=10 μm. Five fields were scanned and mean fluorescence intensity (MFI) per cell calculated using ImageJ software (NIH); results are mean+SEM and the asterisks indicate significant differences by ANOVA compared to DMSO control treated cells. (B). CaSki cells were treated as in A for 15 minutes and then cell lysates were harvested, incubated with a goat anti-PLSCR1 antibody and immune complexes precipitated with protein G-agarose and analyzed by Western blotting with a mouse anti-phosphotyrosine mAb (PY20) or mouse anti-PLSCR1 Ab. […] (C). […] Cell surface proteins were biotinylated and precipitated with streptavidin magnetic beads and the pellet analyzed by immunoblotting with rabbit anti-pAktThr^308 or mouse anti-pAktS^473 1 Abs. In parallel, cellular lysates were analyzed by immunoblotting for total cellular Akt (rabbit polyclonal Ab). […]

PLSCR1 = experiment: Ionomycin activation of PLSCR1 (microscopy, co-immunoprecipitation/anti-phosphotyrosine blot); assay type: cell-based, human; conditions: CaSki cells; 1 μM ionomycin; 15 minutes; immunoblotting
Experimental: as §1

CaSki and HaCAT cells = conditions: 3 independent experiments, FIG. 13

Compound: CC(=O)OCOC(=O)CN(CC(=O)OCOC(C)=O)c1ccccc1OCCOc1ccccc1N(CC(=O)OCOC(C)=O)CC(=O)OCOC(C)=O [BAPTA-AM]
- number of cells with detectable PtdS, Akt, or PLSCR1 at the outer leaflet ([1]; 100 μM pretreatment, CaSki, […]): significantly reduced

Compound: O=C(O)C(=O)O [R5421, ethanedioic acid]
- PtdS and Akt externalization [1]: prevented PtdS and Akt externalization
- viral induced externalization of PtdS ([1]; CaSki cells, 5 μM R5421 15 min pretreatment, […]): prevented the viral induced externalization of PtdS
- PtdS and Akt at the outer leaflet ([1]; R5421 added 30 min pi, CaSki, […]): persistence of PtdS and Akt at the outer leaflet for up to 4 h pi
- infection, percentage of GFP positive cells 16 h pi (HSV-1(VP26GFP)): reduced
- reduction of HSV-2 plaque formation relative to DMSO treated controls (HSV-2(G); CaSki cells): 88±7%
- reduction of HSV-2 plaque formation relative to DMSO treated controls (HSV-2(G); HaCAT cells): 71.7±7%
- reduction of HSV-2 plaque formation relative to DMSO treated controls (HSV-2(G); VK2E6/E7 cells): 95±6%
- infection, percentage of GFP positive cells 16 h pi (HSV-2(333ZAG)): reduced

Compound: Nc1nc2c(ncn2COCCO)c(=O)[nH]1 [acyclovir, 9-[2-hydroxymethyl]guanine]
- mortality (HSV-1): 14-19%
- survivors who resume a normal lifestyle (HSV-1): < 50%

Compound: C[C@H](CCC(=O)O)C[C@H](C)C[C@H](C)C(=O)/C=C(\O)[C@H](C)C[C@H](C)C/C=C/[C@@H](C)[C@@H](O)[C@@H](C)[C@@H](O)C[C@@H]1CC[C@@](C)([C@H]2CC[C@@](C)([C@@H](C)O)O2)O1 [ionomycin]
- phosphorylated Akt (Akt): phosphorylated Akt (both at the threonine 308 and serine 473 sites)
- phosphorylated PLSCR1 (PLSCR1): an increase in phosphorylated PLSCR1

Compound: Nonoxynol-9 [N9]
- cytotoxicity, cell viability as percentage of control (CaSki and HaCAT cells): kills cells
